This is an account of results in patent publication US20240208934A1, “ULK1/2 INHIBITORS AND THEIR USE THEREOF” (LifeArc, priority 2021, published 2024).

Broadly, the IC50 is the concentration needed to halve the response being measured.

This assay relates to ULK. Description: ULK radiometric assay (33P incorporation onto MBP substrate, glass fiber capture filter). The following applies: ULK Biochemical activity; 20 uM ATP, 0.2 mg/mL MBP; averages of at least two independent experiments. On the procedure:
ULK activity was measured using a radiometric assay, to measure the incorporation of radiolabelled ^33P onto MBP substrate using a glass fiber capture filter method. Reaction conditions were 0.2 mg/mL MBP, 20 uM ATP (0.25 μCi/well), 50 mM Tris HCl, pH7.5, 10 mM MgCl2, 0.1% beta-mercaptoethanol, 0.1 mM EGTA, 0.01% BSA. Ten point Half log Compound dilution series were prepared in 100% DMSO and added to the reaction to give final assay concentration of 10% DMSO. Compounds were tested in duplicate and values normalized to 10% DMSO only controls. The data were fitted to a four parameter fit equation and the IC50 values shown are averages of at least two independent experiments.
`O=C(CCNc1nc(Nc2cc3c(cc2Cl)CNCC3)ncc1C(F)(F)F)N[C@@H](C1CC1)C(F)(F)F` [Example 2, (S)-3-(2-(7-chloro-1,2,3,4-tetrahydroisoquinolin-6-ylamino)-5-(trifluoromethyl)pyrimidin-4-ylamino)-N-(1-cyclopropyl-2,2,2-trifluoroethyl)propanamide] yielded a half-maximal inhibitory concentration (IC50) of under 0.2 µM. As for `COc1nn(CCN(C)C)cc1Nc1ncc(C(F)(F)F)c(NCCCN2CCCCC2=O)n1` [Example 3, 1-(3-((2-((1-(2-(Dimethylamino)ethyl)-3-methoxy-1H-pyrazol-4-yl)amino)-5-(trifluoromethyl)pyrimidin-4-yl)amino)propyl) piperidin-2-one], the IC50 is under 0.2 µM. The compound `CN(C)Cc1cccc(Nc2ncc(C3CC3)c(NCCCN3CCCCC3=O)n2)c1` [Example 13, 1-(3-(5-Cyclopropyl-2-(3-((dimethylamino)methyl)phenylamino)pyrimidin-4-ylamino)propyl) piperidin-2-one] registered an IC50 of under 0.2 µM. For `CN1CCc2ccc(Nc3ncc(C4CC4)c(NCCCN4CCCCC4=O)n3)cc2C1` [Example 12, 1-(3-((5-Cyclopropyl-2-((2-methyl-1,2,3,4-tetrahydroisoquinolin-7-yl)amino)pyrimidin-4-yl)amino)propyl)piperidin-2-one] the value was under 0.2 µM.

In the case of `COc1cc(C(=O)NC2CCNCC2)ccc1Nc1ncc(C(F)(F)F)c(NCCCN2CCCCC2=O)n1` [Example 42, 3-Methoxy-4-[[4-[3-(2-oxo-1-piperidyl)propylamino]-5-(trifluoromethyl)pyrimidin-2-yl]amino]-N-(4-piperidyl)benzamide], the IC50 fell in the range of 0.2 to 1 µM. The figure for `O=C1CCCCN1CCCNc1nc(Nc2cc3c(cc2Cl)CCNC3)ncc1C(F)(F)F` [Example 43, 1-[3-[[2-[(6-Chloro-1,2,3,4-tetrahydroisoquinolin-7-yl)amino]-5-(trifluoromethyl)pyrimidin-4-yl]amino]propyl]piperidin-2-one] is under 0.2 µM; for `CNCc1ccc(OC)c(Nc2ncc(C(F)(F)F)c(NCCCN3CCCCC3=O)n2)c1` [Example 60, 1-[3-[[2-[2-Methoxy-5-(methylaminomethyl)anilino]-5-(trifluoromethyl)pyrimidin-4-yl]amino]propyl]piperidin-2-one] it is under 0.2 µM. For `CN1CCC(Oc2cccc(Nc3ncc(C(F)(F)F)c(NCCCN4CCCCC4=O)n3)c2)CC1` [Example 8, 1-[3-[[2-[3-[(1-Methyl-4-piperidyl)oxy]anilino]-5-(trifluoromethyl)pyrimidin-4-yl]amino]propyl]piperidin-2-one] the value was under 0.2 µM. For `CN(C)CCOc1ccc(Cl)c(Nc2ncc(C(F)(F)F)c(NCCCN3CCCCC3=O)n2)c1` [Example 58, 1-[3-[[2-[2-Chloro-5-[2-(dimethylamino)ethoxy]anilino]-5-(trifluoromethyl)pyrimidin-4-yl]amino]propyl]piperidin-2-one] the value was 0.2 to 1 µM; for `CN1CCc2ccc(Nc3ncc(C4CC4)c(NCCCN4CCCC4=O)n3)cc2C1` [Example 10, 1-(3-((5-Cyclopropyl-2-((2-methyl-1,2,3,4-tetrahydroisoquinolin-7-yl)amino)pyrimidin-4-yl)amino)propyl)pyrrolidin-2-one], under 0.2 µM; for `COCc1ccc(Nc2ncc(C(F)(F)F)c(NCCCN3CCCCC3=O)n2)c(OC)c1` [Example 34, 1-[3-[[2-[2-Methoxy-4-(methoxymethyl)anilino]-5-(trifluoromethyl)pyrimidin-4-yl]amino]propyl]piperidin-2-one], at least 1 µM.

`COc1ccccc1Nc1ncc(C(F)(F)F)c(NCCCN2CCCCC2=O)n1` [Example 30, 1-[3-[[2-(2-Methoxyanilino)-5-(trifluoromethyl)pyrimidin-4-yl]amino]propyl]piperidin-2-one] yielded a half-inhibitory concentration (IC50) of at least 1 µM. For `CN1CCC(O)(c2ccc(Nc3ncc(C4CC4)c(NCCCN4CCCCC4=O)n3)cc2)CC1` [Example 14, 1-(3-((5-Cyclopropyl-2-((4-(4-hydroxy-1-methylpiperidin-4-yl)phenyl)amino)pyrimidin-4-yl)amino)propyl)piperidin-2-one], the concentration for half-maximal inhibition (IC50) was under 0.2 µM. Turning to `CCN(CC)C(=O)C1CCCN(c2nc(Nc3cc4c(cc3OC)CCNC4)ncc2C(F)(F)F)C1` (stereo not shown) [Example 69, N,N-diethyl-1-[2-[(6-methoxy-1,2,3,4-tetrahydroisoquinolin-7-yl)amino]-5-(trifluoromethyl)pyrimidin-4-yl]piperidine-3-carboxamide], the IC50 is at least 1 µM. For `COc1cc2c(cc1Nc1ncc(C(F)(F)F)c(NCCCN3CCCCC3=O)n1)CCNC2` [Example 4, 1-(3-((2-((7-Methoxy-1,2,3,4-tetrahydroisoquinolin-6-yl)amino)-5-(trifluoromethyl)pyrimidin-4-yl)amino)propyl)piperidin-2-one] the value was under 0.2 µM; for `CN1CCc2cc(Nc3ncc(C(F)(F)F)c(NCCCN4CCCC4=O)n3)ccc2C1` [Example 76, 1-[3-[[2-[(2-Methyl-3,4-dihydro-1H-isoquinolin-6-yl)amino]-5-(trifluoromethyl)pyrimidin-4-yl]amino]propyl]pyrrolidin-2-one], under 0.2 µM. For `O=C1CCCCN1CCCNc1nc(Nc2ccc3c(c2)CCNC3)ncc1C(F)(F)F` [Example 19, 1-[3-[[2-(1,2,3,4-Tetrahydroisoquinolin-6-ylamino)-5-(trifluoromethyl)pyrimidin-4-yl]amino]propyl]piperidin-2-one] the value was under 0.2 µM; for `FC(F)(F)c1cnc(Nc2ccc(CCN3CCCC3)cc2)nc1NCc1cc[nH]n1` [Example 86, N4-(1H-pyrazol-3-ylmethyl)-N2-[4-(2-pyrrolidin-1-ylethyl)phenyl]-5-(trifluoromethyl)pyrimidine-2,4-diamine], 0.2 to 1 µM; for `O=C1CCCN1CCCNc1nc(Nc2ccc3c(c2)CCNC3)ncc1C(F)(F)F` [Example 66, 1-[3-[[2-(1,2,3,4-tetrahydroisoquinolin-6-ylamino)-5-(trifluoromethyl)pyrimidin-4-yl]amino]propyl]pyrrolidin-2-one], under 0.2 µM. The compound `COc1ccc(CN2CCOCC2)cc1Nc1ncc(C(F)(F)F)c(NCCCN2CCCCC2=O)n1` [Example 61, 1-[3-[[2-[2-Methoxy-5-(morpholinomethyl)anilino]-5-(trifluoromethyl)pyrimidin-4-yl]amino]propyl]piperidin-2-one] displayed an IC50 of at least 1 µM. As to `O=C1CCCCN1CCCNc1nc(Nc2cc(CO)ccc2Cl)ncc1C(F)(F)F` [Example 26, 1-[3-[[2-[2-Chloro-5-(hydroxymethyl)anilino]-5-(trifluoromethyl)pyrimidin-4-yl]amino]propyl]piperidin-2-one], the IC50 is under 0.2 µM. For `COc1cc2c(cc1Nc1ncc(C(F)(F)F)c(NCCCN3CCCC3=O)n1)CNCC2` [Example 81, 1-[3-[[2-[(6-Methoxy-1,2,3,4-tetrahydroisoquinolin-7-yl)amino]-5-(trifluoromethyl)pyrimidin-4-yl]amino]propyl]pyrrolidin-2-one] the value was under 0.2 µM; for `COc1cc2c(cc1Nc1ncc(C(F)(F)F)c(NC3CCN(C(C)=O)CC3)n1)CNCC2` [Example 68, 1-[4-[[2-[(6-Methoxy-1,2,3,4-tetrahydroisoquinolin-7-yl)amino]-5-(trifluoromethyl)pyrimidin-4-yl]amino]-1-piperidyl]ethanone], at least 1 µM. The figure for `O=C(CCNc1nc(Nc2cccc(OC3CCNCC3)c2)ncc1C(F)(F)F)N1CCOCC1` [Example 80, 1-Morpholino-3-[[2-[3-(4-piperidyloxy)anilino]-5-(trifluoromethyl)pyrimidin-4-yl]amino]propan-1-one] is 0.2 to 1 µM; for `O=C1CCCCN1CCCNc1nc(Nc2cc(CN3CCOCC3)ccc2Cl)ncc1C(F)(F)F` [Example 55, 1-[3-[[2-[2-Chloro-5-(morpholinomethyl)anilino]-5-(trifluoromethyl)pyrimidin-4-yl]amino]propyl]piperidin-2-one] it is 0.2 to 1 µM; for `COc1ccc(CO)cc1Nc1ncc(C(F)(F)F)c(NCCCN2CCCCC2=O)n1` [Example 47, 1-[3-[[2-[5-(Hydroxymethyl)-2-methoxy-anilino]-5-(trifluoromethyl)pyrimidin-4-yl]amino]propyl]piperidin-2-one] it is at least 1 µM. The figure for `Fc1cccc(Nc2ncc(C(F)(F)F)c(NCCCN3CCCC3)n2)c1` [Example 5, N2-(3-fluorophenyl)-N4-(3-(pyrrolidin-1-yl)propyl)-5-(trifluoromethyl)pyrimidine-2,4-diamine] is at least 1 µM; for `O=C1CCCN1CCCNc1nc(Nc2ccc3c(c2)CNCC3)ncc1C(F)(F)F` [Example 77, 1-[3-[[2-(1,2,3,4-Tetrahydroisoquinolin-7-ylamino)-5-(trifluoromethyl)pyrimidin-4-yl]amino]propyl]pyrrolidin-2-one] it is at least 1 µM. Regarding `CN1CCc2ccc(Nc3ncc(C4CC4)c(NC4CC4)n3)cc2C1` [Example 18, N4,5-dicyclopropyl-N2-(2-methyl-1,2,3,4-tetrahydroisoquinolin-7-yl)pyrimidine-2,4-diamine], the half-maximal inhibitory concentration (IC50) was under 0.2 µM.

Take `COc1nn(C)cc1Nc1ncc(C(F)(F)F)c(NCCCN2CCCCC2=O)n1` [Example 27, 1-[3-[[2-[(3-Methoxy-1-methyl-pyrazol-4-yl)amino]-5-(trifluoromethyl)pyrimidin-4-yl]amino]propyl]piperidin-2-one]: the half-maximal inhibitory concentration (IC50) is under 0.2 µM. The figure for `O=C1CCCCN1CCCNc1nc(Nc2cc(O)ccc2Cl)ncc1C(F)(F)F` [Example 57, 1-[3-[[2-(2-Chloro-5-hydroxy-anilino)-5-(trifluoromethyl)pyrimidin-4-yl]amino]propyl]piperidin-2-one] is 0.2 to 1 µM.
